According to the supplement of paper PMC10307832:

Key:
Test in all cases: relative viability (nuclei count vs DMSO), 5 days (fraction); higher = more cells survive
[1] = compound: CC[C@H](CO)Nc1nc(NCc2ccccc2)c2ncn(C(C)C)c2n1 [Seliciclib]
In short: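 Vehicle-anchored 1536-well plates of lung cancer cell lines, held overnight at 37 °C, were pinned with five library-drug doses (not always all listed) spaced by √10. No medium change followed over the next 5 days, after which the cells were fixed, permeabilised and Hoechst-stained together and imaged at 4×. Nuclei were counted with MetaXpress, and viability is treated-well nuclei over vehicle-well nuclei, taken as a median across plates. Plates passed with control CV below 25% and at least one doubling.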

[2] = compound: CC[C@H](CO)Nc1nc(NCc2ccccc2)c2ncn(C(C)C)c2n1 [Seliciclib] + O=C(c1cc(Cc2n[nH]c(=O)c3ccccc23)ccc1F)N1CCN(C(=O)C2CC2)CC1 [Olaparib] (partner 8 µM)
In short: (§1)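 Relative viability divides the nuclei count in treated wells by that in vehicle wells. Lung cancer cell lines were seeded in 1536-well plates, dosed by pin tool the next day, and fixed and stained after 5 days in one step with final 0.05% Triton X-100, 1% formaldehyde and 1 ug/ml Hoechst. Dosing was a single drug or a fixed anchor-drug dose plus five library-drug doses (not always all listed) in √10 steps, and values are medians of duplicate plates imaged at 4×.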

[3] = compound: CC[C@H](CO)Nc1nc(NCc2ccccc2)c2ncn(C(C)C)c2n1 [Seliciclib] + N=C(N)NC(=N)NCCc1ccccc1 [Phenformin] (partner 250 µM)
In short: as §1

[4] = compound: CC[C@H](CO)Nc1nc(NCc2ccccc2)c2ncn(C(C)C)c2n1 [Seliciclib] + CC(=O)Nc1cccc(-n2c(=O)n(C3CC3)c(=O)c3c(Nc4ccc(I)cc4F)n(C)c(=O)c(C)c32)c1 [Trametinib] (partner 0.02 µM)
In short: as §1

| Cell Line | relative viability ([1]; 0.08 µM) | relative viability ([1]; 0.253 µM) | relative viability ([1]; 0.8 µM) | relative viability ([1]; 2.53 µM) | relative viability ([1]; 8 µM) | relative viability ([2]; first compound 0.08 µM) | relative viability ([2]; first compound 0.253 µM) | relative viability ([2]; first compound 0.8 µM) | relative viability ([2]; first compound 2.53 µM) | relative viability ([2]; first compound 8 µM) | relative viability ([3]; first compound 0.08 µM) | relative viability ([3]; first compound 0.253 µM) | relative viability ([3]; first compound 0.8 µM) | relative viability ([3]; first compound 2.53 µM) | relative viability ([3]; first compound 8 µM) | relative viability ([4]; first compound 0.08 µM) | relative viability ([4]; first compound 0.253 µM) | relative viability ([4]; first compound 0.8 µM) | relative viability ([4]; first compound 2.53 µM) | relative viability ([4]; first compound 8 µM) |
| --- | --- | --- | --- | --- | --- | --- | --- | --- | --- | --- | --- | --- | --- | --- | --- | --- | --- | --- | --- | --- |
| NCI-H441 | 1.07 | 1.01 | 1.06 | 0.783 | 0.566 | 0.525 | 0.451 | 0.562 | 0.466 | 0.448 | 0.836 | 0.804 | 0.805 | 0.459 | 0.632 | 0.563 | 0.552 | 0.557 | 0.241 | 0.454 |
| NCI-H2126 | 0.965 | 0.931 | 0.961 | 0.663 | 0.829 | 0.886 | 0.953 | 0.888 | 0.908 | 0.745 | 0.518 | 0.489 | 0.518 | 0.359 | 0.467 | 0.581 | 0.54 | 0.623 | 0.525 | 0.449 |
| HCC-44 | 1 | 1.05 | 1.01 | 0.931 | 0.899 | 0.978 | 1.03 | 1.01 | 0.966 | 0.973 | 0.309 | 0.126 | 0.375 | 0.0882 | 0.174 | 1.09 | 1.17 | 0.999 | 0.933 | 1.06 |
| NCI-H460 | 0.952 | 1.13 | 0.996 | 1.04 | 0.889 | 0.496 | 0.517 | 0.472 | 0.458 | 0.359 | 0.55 | 0.526 | 0.515 | 0.567 | 0.469 | 0.176 | 0.137 | 0.132 | 0.115 | 0.102 |
| SK-LU-1 | 1.03 | 1.05 | 1.07 | 0.975 | 0.782 | 0.411 | 0.543 | 0.478 | 0.404 | 0.34 | 0.532 | 0.582 | 0.647 | 0.435 | 0.413 | 0.548 | 0.426 | 0.54 | 0.601 | 0.415 |
| SW 900 | 0.9 | 0.994 | 1.09 | 0.744 | 0.668 | 0.769 | 0.89 | 0.79 | 0.721 | 0.437 | 0.62 | 0.6 | 0.404 | 0.643 | 0.418 | 0.632 | 0.833 | 0.734 | 0.514 | 0.524 |
| NCI-H322M | 0.932 | 1.09 | 0.798 | 0.799 | 0.753 | 0.722 | 0.969 | 0.561 | 0.758 | 0.749 | 0.861 | 0.967 | 0.693 | 0.673 | 0.536 | 0.536 | 0.487 | 0.495 | 0.473 | 0.399 |
| EKVX | 0.946 | 1.03 | 0.862 | 0.923 | 0.844 | 0.772 | 1.08 | 0.749 | 0.682 | 0.775 |  | 0.255 | 0.189 | 0.215 | 0.199 | 0.373 | 0.252 | 0.286 | 0.31 | 0.328 |
